The term pIC50 denotes the negative decadic logarithm of the IC50, by convention in mol/L. Read a low pIC50 as a high IC50.

The results in this text go back to article PMC10108353, “Design and Pharmacological Characterization of α4β1 Integrin Cyclopeptide Agonists: Computational Investigation of Ligand Determinants for Agonism versus Antagonism” (Journal of Medicinal Chemistry, 2023).

Each structure is given as a SMILES string. pIC50: −log10 of the molar value. Read-outs that look alike come from different tables or passages of the source. Starred links: 1 amine or outer side, 2 acyl side, 3 side chain; linkers in the order of their positions; H or OH if unused. Positions of bridges follow the written chain, without caps; N, C: chain ends. Non-standard residues stand in square brackets, D forms with d. Residues, ends and D or L forms follow the SMILES beside them. Groups on a side chain read outwards from the residue. *: point of attachment. dPhe(4-NH2) = Nc1ccc(C[C@@H](N)C(=O)O)cc1; Phe(4-NH2) = Nc1ccc(C[C@H](N)C(=O)O)cc1; NH(2-Me-phenyl) = Cc1ccccc1N*; Phg = N[C@H](C(=O)O)c1ccccc1; d(β3hA) = C[C@@H](N)CC(=O)O; CO = O=C([*:1])[*:2]; NHPr = CCCN*

The conditions of data set [1]: amide bond, 16-membered ring, HBTU/HOBt/DIPEA, DMF, 25.0 °C.
The target of data set [2] is T1, α4β1 integrin (Homo sapiens, UniProt P05556+P13612). In words: Jurkat E6.1 cell adhesion to FN. The conditions noted are these: for agonist or antagonist behaviour, FN/Jurkat E6.1 α4β1: agonist = adhesion index >1, antagonist = adhesion index <1.
Description: (§1) Cells were seeded in 96-well plates coated with the specific natural human recombinant ligands (Table 1) and allowed to adhere in the presence of increasing concentrations (10^–10 to 10^–4 M) of the synthesized CPPs before the determination of the number of adherent cells (as described in Experimental Section).
(§2) For adhesion assays on Jurkat E6.1, RPMI8866, or HL60 cells, black 96-well plates were coated overnight at 4 °C with VCAM-1 or ICAM-1 or MAdCAM-1 (5 μg/mL) or Fg (10 μg/mL). The cells were counted, stained with CellTracker green CMFDA (12.5 μM, 30 min at 37 °C, Life Technologies), and after three washes, were preincubated with increasing concentrations of new CPP (10^–10 to 10^–4 M) or with the vehicle (methanol) for 30 min at 37 °C. Then cells were plated (500 000/well) on coated wells and incubated for 30 min at 37 °C. After three washes, adhered cells were lysed with 0.5% Triton X-100 in PBS (30 min at 4 °C) and fluorescence was measured (Ex485 nm/Em535 nm) in an EnSpire Multimode Plate Reader (PerkinElmer, Waltham, MA). For adhesion assays mediated by α5β1 integrin, 96-well plates were coated by passive adsorption with FN (10 μg/mL) overnight at 4 °C. K562 cells were counted and preincubated with various concentrations of the peptides or with the vehicle (methanol) for 30 min at RT. Afterward, the cells were plated (50 000 cells/well) and incubated at RT for 1 h. The wells were then washed with 1% BSA in PBS (phosphate-buffered saline) to take off nonadherent cells, and 50 μL of hexosaminidase substrate was added; after addition of 100 μL of stopping solution, the plates were read at 405 nm. In both types of adhesion assay, the number of adherent cells was determined by comparison with a standard curve made in the same plate. Experiments were carried out in quadruplicate and repeated at least three times.
(§3) Jurkat E6.1 (expressing α4β1 and αLβ2 integrin), K562 (expressing α5β1 integrin) and HL60 (expressing αMβ2 integrin) cell lines were purchased from ATCC (Rockville, MD, USA); these cells were routinely cultured in RPMI-1640 (Life Technologies) supplemented with glutamine and 10% FBS.
(§4) Cells were grown at 37 °C under 5% CO2 humidified atmosphere.
The target in data set [3] is T1, α4β1 integrin. The data set is described as follows: Jurkat E6.1 cell adhesion to VCAM-1. The conditions noted are these: agonist = adhesion index >1, antagonist = adhesion index <1.
Description: as §1, §2, §3, §4
Data set [4] has as its system ERK1/2 phosphorylation mediated by α4β1 integrin. In words: ERK1/2 phosphorylation in Jurkat E6.1 cells (Western blot). It is filed as cell-based. To be noted: compound 10^–7 to 10^–9 M, no FN, vs vehicle. The procedure: Intracellular signaling generated by the interaction of ECM components with α4β1 integrin produces an increase in the phosphorylation of cytoplasmatic second messengers such as ERK1/2 that contribute to α4 integrin-mediated cell functions.
Western blot analysis was performed as previously described, with the following modifications. […] On the other hand, after 1 h incubation with integrin antagonists, the cells were then seeded on FN (10 μg/mL) coated plates for 1 h. Integrin agonists were not incubated with FN. At the end of the incubation time, Jurkat E6.1 cells were lysed on ice using a mammalian protein extraction reagent (M-PER; Pierce, Rockford, IL) supplemented with a phosphatase inhibitor cocktail. Protein extracts were quantified using a BCA protein assay kit (Pierce), separated by 12% SDS-PAGE gel, transferred onto nitrocellulose membranes, and immunoblotted with anti-phospho-ERK1/2 (1:1000) (Cell Signaling Technology, Danvers, MA) or anti-total ERK1/2 antibodies (1:2500) (Cell Signaling Technology). Protocols for digital image acquisition and analysis have been previously described.[73] Densitometric analysis of the bands is reported (mean ± SD; n = 3); the amount of phosphorylated ERK1/2 (pERK1/2) is normalized to that of total ERK1/2 (totERK1/2). Experiments were replicated independently at least three times. Statistical analyses were performed using one-way ANOVA and the post hoc Newman–Keuls test.
For orientation: In western blotting, separated proteins are transferred to a membrane and probed.

T1 sequence (P13612 34-1032): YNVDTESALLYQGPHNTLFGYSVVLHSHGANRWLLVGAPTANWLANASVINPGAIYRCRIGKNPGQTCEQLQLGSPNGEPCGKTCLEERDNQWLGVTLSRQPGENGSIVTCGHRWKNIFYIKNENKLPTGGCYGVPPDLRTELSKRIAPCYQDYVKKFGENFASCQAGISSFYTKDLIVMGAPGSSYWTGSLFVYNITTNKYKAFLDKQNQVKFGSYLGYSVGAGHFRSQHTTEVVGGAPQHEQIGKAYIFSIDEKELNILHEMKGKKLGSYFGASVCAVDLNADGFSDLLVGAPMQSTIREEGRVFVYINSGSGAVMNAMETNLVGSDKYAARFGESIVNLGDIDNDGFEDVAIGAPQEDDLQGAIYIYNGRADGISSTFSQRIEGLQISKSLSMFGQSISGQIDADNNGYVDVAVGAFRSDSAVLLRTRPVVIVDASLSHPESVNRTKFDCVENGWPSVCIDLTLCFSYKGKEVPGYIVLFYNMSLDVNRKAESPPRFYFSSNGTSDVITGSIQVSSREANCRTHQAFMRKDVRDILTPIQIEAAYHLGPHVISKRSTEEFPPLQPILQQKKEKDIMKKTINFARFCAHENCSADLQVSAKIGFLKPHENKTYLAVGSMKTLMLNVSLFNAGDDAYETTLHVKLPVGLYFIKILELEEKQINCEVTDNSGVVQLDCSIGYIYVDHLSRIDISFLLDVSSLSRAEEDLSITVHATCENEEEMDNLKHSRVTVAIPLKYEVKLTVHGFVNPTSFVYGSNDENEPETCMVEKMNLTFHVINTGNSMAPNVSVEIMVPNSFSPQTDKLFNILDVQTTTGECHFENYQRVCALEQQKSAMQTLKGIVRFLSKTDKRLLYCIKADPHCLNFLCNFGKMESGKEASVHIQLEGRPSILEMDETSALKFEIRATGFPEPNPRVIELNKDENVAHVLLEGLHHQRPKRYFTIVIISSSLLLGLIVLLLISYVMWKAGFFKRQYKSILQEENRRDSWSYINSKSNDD
T1 sequence (P05556 21-798): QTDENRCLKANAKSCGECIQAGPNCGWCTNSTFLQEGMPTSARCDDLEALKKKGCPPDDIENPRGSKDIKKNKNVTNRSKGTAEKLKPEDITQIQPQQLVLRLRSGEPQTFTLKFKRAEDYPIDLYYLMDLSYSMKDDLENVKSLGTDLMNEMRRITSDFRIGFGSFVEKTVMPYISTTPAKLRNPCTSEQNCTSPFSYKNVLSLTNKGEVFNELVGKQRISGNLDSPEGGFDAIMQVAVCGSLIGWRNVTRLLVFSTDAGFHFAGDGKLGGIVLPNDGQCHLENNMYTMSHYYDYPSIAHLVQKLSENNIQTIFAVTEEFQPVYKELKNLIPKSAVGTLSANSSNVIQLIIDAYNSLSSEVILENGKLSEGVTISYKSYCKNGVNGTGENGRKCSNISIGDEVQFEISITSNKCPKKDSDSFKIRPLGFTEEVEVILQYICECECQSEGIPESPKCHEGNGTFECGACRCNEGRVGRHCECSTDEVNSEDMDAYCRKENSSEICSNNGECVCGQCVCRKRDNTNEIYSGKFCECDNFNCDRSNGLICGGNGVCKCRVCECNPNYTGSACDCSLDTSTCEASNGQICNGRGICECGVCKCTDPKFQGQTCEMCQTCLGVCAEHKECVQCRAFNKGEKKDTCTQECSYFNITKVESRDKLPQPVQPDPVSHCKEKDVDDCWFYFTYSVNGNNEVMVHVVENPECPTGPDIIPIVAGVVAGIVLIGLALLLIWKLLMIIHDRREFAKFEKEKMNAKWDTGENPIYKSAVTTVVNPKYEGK

Compound `Cc1ccccc1NC(=O)Nc1ccc(C[C@@H]2NC(=O)C[C@@H](C(=O)OCc3ccccc3)NC(=O)[C@H](C(C)C)NC(=O)[C@H](C)NC(=O)[C@H](Cc3ccccc3)NC2=O)cc1` [H-Phu-Phe-Ala-Val-isoAsp(OBn)-OH] came in with a ring closure, yield after HPLC in data set [1] (from H-Phu-Phe-Ala-Val-isoAsp(OBn)-OH) of 48%.
In turn, `Cc1ccccc1NC(=O)Nc1ccc(C[C@H]2NC(=O)C[C@@H](C(=O)OCc3ccccc3)NC(=O)[C@H](c3ccccc3)NC(=O)[C@H](CC(=O)OCc3ccccc3)NC(=O)[C@H](CC(C)C)NC2=O)cc1` [H-dPhu-Leu-Asp(OBn)-Phg-isoAsp(OBn)-OH?] gave a ring closure, yield after HPLC in data set [1] (from H-dPhu-Leu-Asp(OBn)-Phg-isoAsp(OBn)-OH?) of 43%.
Turning to `Cc1ccccc1NC(=O)Nc1ccc(C[C@H]2NC(=O)C[C@H](C(=O)O)NC(=O)[C@H](C(C)C)NC(=O)[C@H](CC(=O)O)NC(=O)[C@H](CC(C)C)NC2=O)cc1` [3d, c[(R)-Phu-Leu-Asp-Val-(R)-isoAsp]] ([dPhe(4-NH2)]([CO-NH(2-Me-phenyl)])LDV[dD]-OH; lactam N-5 (inferred)), on α4β1 integrin [2], the “agonist or antagonist behaviour, FN/Jurkat E6.1 α4β1” value is listed as “agonist”. For the same compound, the “agonist or antagonist behaviour, VCAM-1/Jurkat E6.1 α4β1” value at α4β1 integrin [3] is given as “agonist”. Also, the “effect on ERK1/2 phosphorylation, compound administered alone” value in data set [4] was “significant concentration-dependent increase of ERK1/2 phosphorylation”.
`CCCNC(=O)[C@@H]1CC(=O)N[C@@H](Cc2ccc(NC(=O)Nc3ccccc3C)cc2)C(=O)N[C@@H](CC(C)C)C(=O)N[C@@H](CC(=O)OCc2ccccc2)C(=O)N[C@@H](C(C)C)C(=O)N1` [H-Phu-Leu-Asp(OBn)-Val-isoAsp(NHPr)-OH?]: in data set [1] (from H-Phu-Leu-Asp(OBn)-Val-isoAsp(NHPr)-OH?), the ring closure, yield after HPLC worked out at 27%.
In turn, `Cc1ccccc1NC(=O)Nc1ccc(C[C@H]2NC(=O)C[C@H](C(=O)OCc3ccccc3)NC(=O)[C@H](C(C)C)NC(=O)[C@H](CC(=O)OCc3ccccc3)NC(=O)[C@H](CC(C)C)NC2=O)cc1` [H-dPhu-Leu-Asp(OBn)-Val-disoAsp(OBn)-OH] displayed a ring closure, yield after HPLC in data set [1] (from H-dPhu-Leu-Asp(OBn)-Val-disoAsp(OBn)-OH) of 34%.
In data set [1] (from H-dPhu-Leu-Asp(OBn)-Val-(R)-β3homoAla-OH), `Cc1ccccc1NC(=O)Nc1ccc(C[C@H]2NC(=O)C[C@@H](C)NC(=O)[C@H](C(C)C)NC(=O)[C@H](CC(=O)OCc3ccccc3)NC(=O)[C@H](CC(C)C)NC2=O)cc1` [H-dPhu-Leu-Asp(OBn)-Val-(R)-β3homoAla-OH] had a ring closure, yield after HPLC of 33%.
In the case of `CCCNC(=O)[C@@H]1CC(=O)N[C@@H](Cc2ccc(NC(=O)Nc3ccccc3C)cc2)C(=O)N[C@@H](CC(C)C)C(=O)N[C@@H](CC(=O)O)C(=O)N[C@@H](C(C)C)C(=O)N1` [compound 13, c[(S)-PhU-Leu-Asp-Val-(S)-isoAsp(nPr)]] ([Phe(4-NH2)]([CO-NH(2-Me-phenyl)])LDVD-NHPr; lactam N-5 (inferred)), on α4β1 integrin [2], the pIC50 was less than 5.30 and the “agonist or antagonist behaviour, FN/Jurkat E6.1 α4β1” value is “complete loss of activity”.
In data set [1] (from H-Phu-Leu-Asp(OBn)-Val-(R)-β3homoAla-OH), `Cc1ccccc1NC(=O)Nc1ccc(C[C@@H]2NC(=O)C[C@@H](C)NC(=O)[C@H](C(C)C)NC(=O)[C@H](CC(=O)OCc3ccccc3)NC(=O)[C@H](CC(C)C)NC2=O)cc1` [H-Phu-Leu-Asp(OBn)-Val-(R)-β3homoAla-OH] registered a ring closure, yield after HPLC of 50%.
Compound `Cc1ccccc1NC(=O)Nc1ccc(C[C@H]2NC(=O)C[C@@H](C(=O)OCc3ccccc3)NC(=O)[C@H](C(C)C)NC(=O)[C@H](C)NC(=O)[C@H](CC(C)C)NC2=O)cc1` [H-dPhu-Leu-Ala-Val-isoAsp(OBn)-OH] had a ring closure, yield after HPLC in data set [1] (from H-dPhu-Leu-Ala-Val-isoAsp(OBn)-OH) of 15%.
Turning to `Cc1ccccc1NC(=O)Nc1ccc(C[C@H]2NC(=O)C[C@@H](C(=O)O)NC(=O)[C@H](C(C)C)NC(=O)[C@H](C)NC(=O)[C@H](CC(C)C)NC2=O)cc1` [12c, c[(R)-Phu-Leu-Ala-Val-(S)-isoAsp]] ([dPhe(4-NH2)]([CO-NH(2-Me-phenyl)])LAVD-OH; lactam N-5 (inferred)), at α4β1 integrin [2], the “agonist or antagonist behaviour, FN/Jurkat E6.1 α4β1” value is “agonist”.
As for `Cc1ccccc1NC(=O)Nc1ccc(C[C@@H]2NC(=O)C[C@@H](C(=O)OCc3ccccc3)NC(=O)[C@H](C(C)C)NC(=O)[C@H](CC(=O)OCc3ccccc3)NC(=O)[C@H](CC(C)C)NC2=O)cc1` [H-Phu-Leu-Asp(OBn)-Val-isoAsp(OBn)-OH], in data set [1] (from H-Phu-Leu-Asp(OBn)-Val-isoAsp(OBn)-OH), the ring closure, yield after HPLC came to 28%.
`Cc1ccccc1NC(=O)Nc1ccc(C[C@@H]2NC(=O)C[C@@H](C(=O)OCc3ccccc3)NC(=O)[C@H](C(C)C)NC(=O)[C@H](CC(=O)OCc3ccccc3)NC(=O)[C@H](CC(C)C)NC2=O)cc1` [H-isoAsp(OBn)-Phu-Leu-Asp(OBn)-Val-OH]: the ring closure, yield after HPLC in data set [1] (from H-isoAsp(OBn)-Phu-Leu-Asp(OBn)-Val-OH) is 0%.
`Cc1ccccc1NC(=O)Nc1ccc(C[C@H]2NC(=O)C[C@@H](C(=O)OCc3ccccc3)NC(=O)[C@H](C(C)C)NC(=O)[C@H](CC(=O)OCc3ccccc3)NC(=O)[C@H](CC(C)C)NC2=O)cc1` [H-dPhu-Leu-Asp(OBn)-Val-isoAsp(OBn)-OH] yielded a ring closure, yield after HPLC in data set [1] (from H-dPhu-Leu-Asp(OBn)-Val-isoAsp(OBn)-OH) of 29%.
On to `Cc1ccccc1NC(=O)Nc1ccc(C[C@@H]2NC(=O)C[C@@H](C)NC(=O)[C@H](C(C)C)NC(=O)[C@H](CC(=O)O)NC(=O)[C@H](CC(C)C)NC2=O)cc1` [11a, c[(S)-Phu-Leu-Asp-Val-(R)-β^3homoAla]] (cyclo([Phe(4-NH2)]([CO-NH(2-Me-phenyl)])LDV[d(β3hA)])), for which, at α4β1 integrin [2], the pIC50 was less than 5.30.
In data set [1] (from H-Phu-Phe-Asp(OBn)-Val-isoAsp(OBn)-OH), `Cc1ccccc1NC(=O)Nc1ccc(C[C@@H]2NC(=O)C[C@@H](C(=O)OCc3ccccc3)NC(=O)[C@H](C(C)C)NC(=O)[C@H](CC(=O)OCc3ccccc3)NC(=O)[C@H](Cc3ccccc3)NC2=O)cc1` [H-Phu-Phe-Asp(OBn)-Val-isoAsp(OBn)-OH] came in with a ring closure, yield after HPLC of 25%.
As to `Cc1ccccc1NC(=O)Nc1ccc(C[C@@H]2NC(=O)C[C@@H](C(=O)OCc3ccccc3)NC(=O)[C@H](C(C)C)NC(=O)[C@H](CC(=O)OCc3ccccc3)NC(=O)[C@H](CC(C)C)NC2=O)cc1` [H-Asp(OBn)-Val-isoAsp(OBn)-Phu-Leu-OH?], the ring closure, yield after HPLC in data set [1] (from H-Asp(OBn)-Val-isoAsp(OBn)-Phu-Leu-OH?) was found to be 0%.
`Cc1ccccc1NC(=O)Nc1ccc(C[C@@H]2NC(=O)C[C@H](C(=O)OCc3ccccc3)NC(=O)[C@H](C(C)C)NC(=O)[C@H](CC(=O)OCc3ccccc3)NC(=O)[C@H](CC(C)C)NC2=O)cc1` [H-Phu-Leu-Asp(OBn)-Val-disoAsp(OBn)-OH] had a ring closure, yield after HPLC in data set [1] (from H-Phu-Leu-Asp(OBn)-Val-disoAsp(OBn)-OH) of 19%.
As for `Cc1ccccc1NC(=O)Nc1ccc(C[C@@H]2NC(=O)C[C@@H](C(=O)OCc3ccccc3)NC(=O)[C@H](C(C)C)NC(=O)[C@H](C)NC(=O)[C@H](CC(C)C)NC2=O)cc1` [H-Phu-Leu-Ala-Val-isoAsp(OBn)-OH], the ring closure, yield after HPLC in data set [1] (from H-Phu-Leu-Ala-Val-isoAsp(OBn)-OH) was determined as 37%.
In turn, `Cc1ccccc1NC(=O)Nc1ccc(C[C@H]2NC(=O)C[C@@H](C(=O)O)NC(=O)[C@H](c3ccccc3)NC(=O)[C@H](CC(=O)O)NC(=O)[C@H](CC(C)C)NC2=O)cc1` [compound 16, c[(R)-Phu-Leu-Asp-Phg-(S)-isoAsp]] ([dPhe(4-NH2)]([CO-NH(2-Me-phenyl)])LD[Phg]D-OH; lactam N-5) showed a pIC50 on α4β1 integrin [2] of less than 5.30.
Same read-out and setting: then `Cc1ccccc1NC(=O)Nc1ccc(C[C@@H]2NC(=O)C[C@@H](C(=O)O)NC(=O)[C@H](C(C)C)NC(=O)[C@H](CC(=O)O)NC(=O)[C@H](Cc3ccccc3)NC2=O)cc1` [compound 14, c[(S)-Phu-Phe-Asp-Val-(S)-isoAsp]] ([Phe(4-NH2)]([CO-NH(2-Me-phenyl)])FDVD-OH; lactam N-5), with less than 5.30.
